Source: patent publication US4657911A, “3-amino quinuclidine derivatives and the application thereof as accelerators of gastro-intestinal motor function” (Delalande S.A., priority 1982, dated 1987)
Structures can show the parent of a compound that is named as a salt. Where two headings read alike, the source gives them in different places.

Tests used:
[1] = acute toxicity in mice, method of MILLER and TAINTER; settings: mouse, in vivo, ip
Procedure: In addition, the acute toxicity in mice was evaluated according to the method of MILLER and TAINTER described in Proc. Soc. Exp. Biol. Med. 57 261 (1944).

total transit = total transit test in rats; format: in vivo; settings: Rattus norvegicus, po, read-out: % animals having completely evacuated the balls after 24 hours; for responders at 10 mg/kg: dose 10 mg/kg p.o.
Procedure: by the total transit test in rats, carried out according to the following method: The compounds of the invention were administered orally simultaneously with 20 steel balls to wakeful rats having eaten nothing for 20 hours. The fast was broken immediately after the administration and the compounds of the invention were administered a second time at the same dose after a period of 7 hours. The total transit was evaluated 24 hours after the first administration of the compounds to be tested by the percentage of the animals having evacuated all the balls in the faeces, the balls being counted by radiological examination.

gastric evacuation = gastric evacuation test on rats; format: in vivo; settings: rats fasted 20 hours, 20 steel balls
Procedure: by the gastric evacuation test on rats, carried out with the following method: The compounds of the invention are administered orally together with 20 steel balls to wakeful rats having eaten nothing for 20 hours. The action on the gastric evacuation of the tested compounds was evaluated 90 minutes after administration thereof by the percentage of animals whose stomach contained no balls, these balls being counted by radiological examination.

[2] = rats, dose 1 mg/kg p.o., second administration at same dose after 7 hours, 24 hours
[3] = rats, second administration at same dose after 7 hours, 24 hours

| SMILES | LD50 ([1]; Table III) [mg/kg] | responders at 1 mg/kg (total transit; [2]) [%] | also measured |
| --- | --- | --- | --- |
| COc1ccc(Br)cc1C(=O)NC1CN2CCC1CC2 (stereo not shown) [compound 18] | 160 |  | responders at 1 mg/kg (total transit; 24 h): 38% |
| COc1cc(NC(C)=O)c(Cl)cc1C(=O)N(C)C1CN2CCC1CC2 (stereo not shown) [compound 23] | 50 | 38 |  |
| COc1cc(N)c(Cl)cc1C(=O)N(C)C1CN2CCC1CC2 (stereo not shown) [compound 24] | 70 | 38 |  |
| COc1ccc(F)cc1C(=O)NC1CN2CCC1CC2 (stereo not shown) [compound 17] | 140 | 57 |  |
| COc1ccccc1C(=O)NC1CN2CCC1CC2 (stereo not shown) [compound 7] | 150 |  | responders at 10 mg/kg (total transit; [3]): 50% |
| O=C(NC1CN2CCC1CC2)c1cccc(Cl)c1 (stereo not shown) [compound 20] | 145 | 50 |  |
| COc1nc(N)ncc1C(=O)NC1CN2CCC1CC2 (stereo not shown) [Code number 1] | 300 |  | responders at 10 mg/kg (total transit; [3]): 50% |
| O=C(NC1CN2CCC1CC2)c1cccc(F)c1 (stereo not shown) [Code number 5, N-(3-quinuclidinyl)3-fluoro benzamide, oxalate] |  |  | LD50 ([1]; Table II): 140 mg/kg; % animals whose stomach contained no ball after 90 minutes (gastric evacuation; dose 2.5 mg/kg p.o.): 100% |
| COc1cc(N)c(Cl)cc1C(=O)NC1CN2CCC1CC2 (stereo not shown) [Code number 2, N-(3-quinuclidinyl)4-amino 5-chloro 2-methoxy benzamide, maleate] |  | 64 | LD50 ([1]; Table II): 105 mg/kg; % animals whose stomach contained no ball after 90 minutes (gastric evacuation; dose 5 mg/kg p.o.): 75%; % animals whose stomach contained no ball after 90 minutes (gastric evacuation; dose 10 mg/kg p.o.): 100% |
| COc1cccc(C(=O)NC2CN3CCC2CC3)c1 (stereo not shown) [Code number 3] |  |  | LD50 ([1]; Table II): 110 mg/kg; % animals whose stomach contained no ball after 90 minutes (gastric evacuation; dose 2.5 mg/kg p.o.): 100% |
| O=C(NC1CN2CCC1CC2)c1ccccc1F (stereo not shown) [compound 6] | 150 |  | responders at 10 mg/kg (total transit; [3]): 55% |
| COc1cc(N)c(Cl)cc1C(=S)NC1CN2CCC1CC2 (stereo not shown) [compound 22] | 300 | 63 |  |
| COc1cc(N)c(Cl)cc1C(=S)N(C)C1CN2CCC1CC2 (stereo not shown) [compound 25] | 80 | 44 |  |
